Test results reported in article PMC9695592, “Phenotypic Evaluation of Nucleoside Analogues against Trypanosoma cruzi Infection: In Vitro and In Vivo Approaches” (Molecules, 2022).

Assays:
[1] = system: intracellular forms of T. cruzi (Tulahuen strain); experiment: Activity against intracellular forms of T. cruzi (Tulahuen-β gal strain) in L929 cultures, CPRG readout; type: cell-based; conditions: Trypanosoma cruzi, 168 h; Tulahuen strain in L929, seven days of compound incubation; 95% confidence interval in brackets
From the text: (§1) L929 cell lines were used to evaluate the effect of the nucleoside derivatives on the cellular viability of mammalian host cells and to assess their activity against intracellular forms of T. cruzi (Tulahuen strain expressing E. coli β-galactosidase gene, DTU VI) as reported. 2D and 3D culture systems of rat cardiomyoblast cell lines (H9C2(2-1)) were used to evaluate cardiotoxicity and to test the derivatives’ activity on intracellular forms (Y strain, DTU II). In all assays, the cell cultures were maintained at 37 °C under an atmosphere of 5% CO2.
(§2) Bloodstream trypomastigotes of the Y strain (DTU II) were obtained by cardiac puncture of infected Swiss Webster mice on the parasitemia peak to perform drug sensitivity assays. Trypomastigote forms of the Tulahuen-β gal strain were collected from the supernatant of previously infected L929 cell cultures (host/parasite cell ratio 10:1). The intracellular forms T. cruzi were studied by the infection of L929 and H9C2 (2D and 3D) cell cultures infected for 48 and 24 h with trypomastigotes of Tulahuen-β gal and Y strains, respectively. The Leishmania mexicana-Cas9 T7 strain (LmexCas9) was derived from L. mexicana WT promastigotes by expression of the Streptococcus pyogenes Cas9 nuclease gene ‘Cas9′ and maintained on 32 μg/mL hygromycin [51]. This strain and the derived strains Cas9^ΔNT1 and Cas9^ΔNT1+TcrNT2 were cultured in HOMEM medium supplemented with 10% of FBS and 1% Penicillin-Streptomycin antibiotic in unvented flasks at 25 °C [52]. The Cas9^ΔNT1 strain is identical to Cas9 except that the LmexNT1.1/NT1.2 locus encoding the L. mexicana adenosine/ pyrimidine transporters was excised using Cas9 [17, 40]. Cas9^ΔNT1+TcrNT2 is the further modification of that strain by the expression of the T. cruzi nucleoside transporter 2 (TcrNT2) gene in it, using the vector pNUS-HcN [53]. Appropriate antibiotics were added for the selection and maintenance of transfectants.
In an initial step, nucleoside derivatives were assayed against intracellular forms of Tulahuen-β gal strain in L929 cell lines. Assays were performed in sterile 96-well microtiter plates with 4 × 10^3 cells/well and 4 × 10^4 parasites/well (host/parasite cell ratio 1:10). After the establishment of infection (48 h), increasing concentrations (up to 30 µM) of the compounds were added, and the cultures maintained at 37 °C for seven days. Untreated-infected controls represented 100% growth. Parasite burden was analyzed by adding the substrate CPRG (chlorophenol red ß-D-galactopyranoside) followed by measurements (spectrophotometrically) at 570 nm. The results were expressed as percentage of reduction in parasite growth compared to untreated cells, and EC50 values were calculated. Bz was used as a positive control. To investigate the effect of the compounds against intracellular forms of the Y strain, rat cardiomyoblasts (2D cultures of H9C2) were seeded in 24-well plates and, after 24 h of platting, were infected with bloodstream trypomastigotes (20 parasites per host cell). After 24 h of interaction, the infected cultures were rinsed to remove non-internalized parasites and incubated with 10 µM of the tested compounds. After seven days of treatment, the cultures were fixed, stained with Giemsa, and 200 cells were quantified by light microscopy. The results were expressed as % of reduction in parasite burden. The data results from two independent experiments performed in at least duplicate were obtained.

[2] = system: bloodstream trypomastigotes of T. cruzi (Y strain); experiment: Activity against bloodstream trypomastigotes, light microscopy counting; type: cell-based; conditions: Trypanosoma cruzi, 24 h of compound incubation, 95% confidence interval in brackets; for EC50: read-out: Activity upon Bloodstream Forms EC50; for EC90: read-out: Activity upon Bloodstream Forms EC90
Description: as §2
To analyze the compound activity against bloodstream trypomastigotes of T. cruzi (Y strain), […] of parasite were added in 96-well microtiter plates and incubated for 2 or for 24 h at 37 °C in RPMI culture medium in the presence or absence of each compound (up to 30 µM). The death rates were quantified by light microscopy using a Neubauer chamber to determine the EC50 [49, 58]. The data results from two independent experiments performed in duplicate were obtained.

[3] = system: intracellular forms of T. cruzi (Y strain) in 2D H9C2; experiment: Activity against T. cruzi (Y strain) infection of H9C2 monolayers (2D); type: cell-based, Trypanosoma cruzi; conditions: 10 µM, seven days of incubation, 95% confidence interval in brackets
From the text: as §1, §2
In an initial step, nucleoside derivatives were assayed against intracellular forms of Tulahuen-β gal strain in L929 cell lines. Assays were performed in sterile 96-well microtiter plates with 4 × 10^3 cells/well and 4 × 10^4 parasites/well (host/parasite cell ratio 1:10). […] Parasite burden was analyzed by adding the substrate CPRG (chlorophenol red ß-D-galactopyranoside) followed by measurements (spectrophotometrically) at 570 nm. The results were expressed as percentage of reduction in parasite growth compared to untreated cells, and EC50 values were calculated. […] After seven days of treatment, the cultures were fixed, stained with Giemsa, and 200 cells were quantified by light microscopy. The results were expressed as % of reduction in parasite burden. […]

Structure (SMILES) | EC50 [1] [µM] | EC90 [1] [µM] | EC50 [2] [µM] | EC90 [2] [µM] | % of Death Rate by Light Microscopy Quantification 2D [3]
Nc1ncnc2c1c(-c1ccc(F)c(F)c1)cn2[C@@H]1O[C@H](CO)[C@@H](O)[C@H]1O [FH11706, 7-(3,4-Difluorophenyl)tubercidin] | 1.11 | > 30 | 17.6 | > 30 | 99.25 (98.83 to 99.67) %
O=C(Cn1ccnc1[N+](=O)[O-])NCc1ccccc1 [Bz, Benznidazole, reference compound] | 1.97 | 5.54 | 6.9 | 19.6 | 100%
Nc1ncnc2c1c(-c1ccc(Cl)c(Cl)c1)cn2[C@@H]1O[C@H](CO)C[C@H]1O [FH8513, 7-(3,4-dichlorophenyl)-3′-deoxytubercidin] | 0.2 | 1.61 | 5.9 | 16.7 | 99.14 (97.9 to 100) %
Nc1ncnc2c1c(-c1ccc(Cl)c(F)c1)cn2[C@@H]1O[C@H](CO)[C@@H](O)[C@H]1O [FH10714, 7-(3-fluoro,4-chlorophenyl)tubercidin] | 0.47 | 6.19 | 13.4 | > 30 | 100%
